Values joined by “and” are separate entries in the source; they are usually repeats but may differ in a detail not shown here. Equal values may be shown once. Read-outs that look alike come from different tables or passages of the source.

We go through 4 compounds from patent publication US11077119B2, “Enhanced brain bioavailability of galantamine by selected formulations and transmucosal administration of lipophilic prodrugs” (Neurodyn Life Sciences Inc., priority 2012, dated 2021).

The nature of data set [1]: Solubility test of Memogain salts in water (HPLC). Conditions: after warming to >50° C.; precipitation seeding avoided. Format: physicochemical.
Experimental: 10 mg of the corresponding salt and 100 microliters of water were sonicated for 5 min at r.t. The resulting solution or suspension was centrifuged for 3 min. and filtered using a filter tip. 10 microliters of the filtrate was transferred in a volumetric flask and diluted to 10.0 ml with water to obtain the sample solution. 20 microliters of this sample solution was injected for HPLC and the amount of Memogain quantified using a Merck Chromolith RP18 column and a gradient of 5% to 60% acetonitrile and water, both solvents containing 0.1% formic acid, injection volume: 20 microliters.
The conditions of data set [2]: 3 mg/kg. The method, then:
The pharmacokinetics and brain-to-blood concentration ratios (BBRC) of several galantamine derivatives and their cleavage product galantamine were evaluated after intranasal administration in Swiss albino mice at a dose of 3 mg/kg. After extraction from brain and blood, the drug concentrations were determined by LC/MS/MS. For comparison, the BBRC for the parent drug galantamine was also determined.

Data set [3] is classed as in vivo. An excerpt: Intranasal dosing can be done with simple spray-pump methods, although also many other methods can be used.
The nature of the next data set: physchem. Format: physicochemical. The method, then:
Free Base in Water: 26 μg/ml (66 μM)
Maleate in Water: 7.5 mg/ml (15 mM)
Maleate in 0.9% NaCl: 0.6 mg/ml (1.5 mM)
Free Base in Cyclodextrin-Vehicle^1): 8.9 mg/ml (23 mM)
Maleate in Cyclodextrin-Vehicle): 21 mg/ml (41 mM) ^1) 15% (109 mM) Hydroxypropyl-β-cyclodextrin, 96 mM NaCl

For data set [4] the following is noted: mouse, in vivo. How it is done: Mice were injected with 3 mg/kg i.v. of either Memogain or galantamine.
A short description of data set [5]: Dog study, single intranasal dose: plasma and brain levels. The method, then: The study was performed in dogs. A single dose of 4 mg/kg intranasal Memogain was administered and the plasma levels of Memogain and liberated galantamine were determined as a function of time after administration.
In a further data set the test system is ferrets. Put plainly: Gastro-intestinal side effects in ferrets. The settings on record: i.p. How it is done:
These studies were performed in ferrets that were dosed i.p. with either 20 mg/kg galantamine (maximal tolerated dose), or with 20, 40 and 80 mg/kg Memogain, respectively.

Data set [6] deals with acetylcholinesterase (AChE) (Homo sapiens, UniProt P22303). Put plainly: esterase inhibition compared with galantamine. The settings on record: read-out: esterase inhibition, relative to that induced by the same concentration of galantamine. Format: biochemical. The method, then: Said derivative of galantamine can be obtained by a one-step chemical modification of the parent drug (galantamine). The modification almost completely abolishes the pharmacological activity of galantamine on its two major targets in the human body, nicotinic acetylcholine receptor (nAChR) and acetylcholinesterase (AChE).
Sequence of acetylcholinesterase (AChE) (P22303 32-614): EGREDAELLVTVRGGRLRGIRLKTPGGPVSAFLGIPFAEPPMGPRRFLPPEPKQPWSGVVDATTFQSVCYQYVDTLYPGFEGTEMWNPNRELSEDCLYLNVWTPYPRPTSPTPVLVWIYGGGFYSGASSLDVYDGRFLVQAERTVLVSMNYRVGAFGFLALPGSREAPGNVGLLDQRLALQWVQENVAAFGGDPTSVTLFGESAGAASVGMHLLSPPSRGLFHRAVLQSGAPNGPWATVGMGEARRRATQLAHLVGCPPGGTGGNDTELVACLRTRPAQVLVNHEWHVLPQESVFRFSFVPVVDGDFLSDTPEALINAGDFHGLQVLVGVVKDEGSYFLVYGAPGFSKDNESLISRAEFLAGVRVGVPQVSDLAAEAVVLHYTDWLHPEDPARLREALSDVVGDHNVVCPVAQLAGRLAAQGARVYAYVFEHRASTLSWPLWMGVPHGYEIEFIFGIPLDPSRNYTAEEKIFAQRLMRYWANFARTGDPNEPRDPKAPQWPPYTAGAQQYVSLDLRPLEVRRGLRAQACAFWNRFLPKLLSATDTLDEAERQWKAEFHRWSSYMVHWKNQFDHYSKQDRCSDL
At the physiologically interesting concentration of 1 μM, Memogain has less than 4% of the esterase inhibition induced by the same concentration of galantamine.

Data set [7] concerns scopolamine-induced amnesia in mice. The data set is described as follows: Reversal of scopolamine-induced amnesia in T-maze. The data set is classed as in vivo. Conditions: scopolamine i.p.; intranasal Memogain versus galantamine. An excerpt: We therefore used pharmacodynamics studies to determine the effective concentrations of parent drug in suitable experimental conditions, such as the reversal of scopolamine-induced temporary amnesia in the T-maze cognitive paradigm studied in mice. These studies confirmed that several fold higher (up to 20 fold) BBRC of parent drug (and related effectiveness in cognitive enhancement) can be achieved by transmucosal delivery of pro-drug formulations via the nasal or buccal cavity.
Mice were treated with scopolamine to induce acute amnesia and were then tested for performance in a T-maze, in the absence or presence of […] galantamine or intranasal Memogain (FIG. 7). […] Mice were challenged with Scopolamine i.p. in a T-maze assay to induce disorientation/amnesia (set to 0% performance recovery). Co-application of galantamine (i.p.) or of Memogain® (i.n.) rescues orientation in the T-maze in a dose-dependent manner.

On the set-up of data set [8]: species or system Wistar rats. The settings on record: rat, in vivo, 3 mg/kg. The method, then: The first-pass effect of Gln-1062 was evaluated after intravenous and intraportal dosing of 3 mg/kg in Wistar rats (FIG. 8).
For data set [9], the system named is dogs. The data set is described as follows: Safety after intravenous bolus. The data set is classed as in vivo. How it is done:
Example 13. Memogain is at Least 10 Times Safer than Galantamine
This study was performed in dogs, and both drugs were administered as intravenous bolus. The lower toxicity of Memogain is due to the much lower steady-state plasma levels of galantamine resulting from enzymatic cleavage of the pro-drug (FIG. 11).

For data set [10], the system named is rats. The settings on record: rat, in vivo.
Data set [11] has as its system rats. Conditions: rat, in vivo. This is another data set of the same source.
Data set [12] has as its system dogs. The settings on record: dog, in vivo.
For data set [13] the following is noted: in vivo.

On to `COc1ccc2c3c1O[C@H]1C[C@@H](OC(=O)c4ccccc4)C=C[C@@]31CCN(C)C2.O=C(O)C(O)C(O)C(O)C(O)CO` [Memogain gluconate, galantamine benzoate gluconate], for which the “stability of metastable high-concentration aqueous solution” value in data set [1] is “stable for hours and days”. The “BBRC compared with galantamine” value in data set [2] (intranasal, LC/MS/MS) is reported as “much larger BBRC than galantamine”. In addition, in [3] (intranasal), the “local sensation on intranasal dosing” value is “no burning sensation to nose”.

As for `COc1ccc2c3c1O[C@H]1C[C@@H](OC(=O)c4ccccc4)C=C[C@@]31CCN(C)C2.O=C(O)/C=C\C(=O)O` [Memogain maleate], the “Solubility in 0.9% NaCl” value in the data set “physchem” (0.9% NaCl) was 0.6 mg/ml and 1.5 mM. Also, in the data set “physchem” (15% (109 mM) Hydroxypropyl-β-cyclodextrin, 96 mM NaCl), the “Solubility in Cyclodextrin-Vehicle” value is 21 mg/ml and 41 mM. Moreover, the “Solubility in Water” value in the data set “physchem” (water) is 7.5 mg/ml and 15 mM.

`COc1ccc2c3c1O[C@H]1C[C@@H](O)C=C[C@@]31CCN(C)C2` [galantamine]: the BBRC in data set [4] is listed as ~1:1. Also, in data set [5] (in vivo, 4 mg/kg), the Kp at 120 min lay within 1 to 1.5 and the half-life (commonly how long it takes for the measured level to halve) is 6 h. In the data set with ferrets, this compound displayed a maximal tolerated dose of 20 mg/kg.

Consider `COc1ccc2c3c1O[C@H]1C[C@@H](OC(=O)c4ccccc4)C=C[C@@]31CCN(C)C2` [GLN-1062, (4aS,6R,8aS)-4a,5,9,10,11,12-hexahydro-3-methoxy-11-methyl-6H-Benzofuro[3a,3,2-ef][2]benzazepin-6-ol, 6-benzoate], for which the inhibition at 1 µM in data set [6] is under 4%. The solubility – broadly, how much of the substance goes into solution per volume – is 8900 µg/mL and 23000 µM in the data set “physchem” (aqueous with cosolvent or surfactant or cyclodextrin); 26 µg/mL and 66 µM in the data set “physchem” (water). For the same compound, the “BBRC compared with galantamine” value in data set [2] (mouse, in vivo) is listed as “particularly large BBRC”. Further, the GI side effects result in data set [3] (in vivo) is reported as “no GI side effects were observed”. Besides, the “reversal of acutely induced amnesia (T-maze performance)” value in data set [7] is given as “more effective than galantamine”. For the same compound, the “maximal concentration levels in the brain, compared with i.v. administration” value in data set [8] is reported as “similarly high maximal concentration levels”. The compound also displayed a half-life in [5] (dog) of 1.5 h. The same compound showed a Kp at 120 min in [5] (dog, 4 mg/kg) of 9. Besides, the “lower toxicity as compared to galantamine” value in the data set with ferrets (from dose dependency of adverse effects (20, 40, 80 mg/kg)) was “at least 4 times”. Moreover, the “safety compared with galantamine” value in the data set on dogs [9] is on record as “at Least 10 Times”. Moreover, the “adverse effects compared with galantamine” value with rats [10], with rats [11] and in the data set with dogs [12] was “much less adverse effects” each time. For the same compound, the GI-related side effects result in [13] is recorded as “GI-related side effects had practically disappeared”.
